The assay concerns the target T1, Dopamine beta hydroxylase (Homo sapiens, UniProt P09172).
T1 construct: 125 μl of plasma; tissue Instituto Português do Sangue Transplantação; host or cells: human plasma from healthy donors
T1 sequence (P09172 40-617 limits assumed): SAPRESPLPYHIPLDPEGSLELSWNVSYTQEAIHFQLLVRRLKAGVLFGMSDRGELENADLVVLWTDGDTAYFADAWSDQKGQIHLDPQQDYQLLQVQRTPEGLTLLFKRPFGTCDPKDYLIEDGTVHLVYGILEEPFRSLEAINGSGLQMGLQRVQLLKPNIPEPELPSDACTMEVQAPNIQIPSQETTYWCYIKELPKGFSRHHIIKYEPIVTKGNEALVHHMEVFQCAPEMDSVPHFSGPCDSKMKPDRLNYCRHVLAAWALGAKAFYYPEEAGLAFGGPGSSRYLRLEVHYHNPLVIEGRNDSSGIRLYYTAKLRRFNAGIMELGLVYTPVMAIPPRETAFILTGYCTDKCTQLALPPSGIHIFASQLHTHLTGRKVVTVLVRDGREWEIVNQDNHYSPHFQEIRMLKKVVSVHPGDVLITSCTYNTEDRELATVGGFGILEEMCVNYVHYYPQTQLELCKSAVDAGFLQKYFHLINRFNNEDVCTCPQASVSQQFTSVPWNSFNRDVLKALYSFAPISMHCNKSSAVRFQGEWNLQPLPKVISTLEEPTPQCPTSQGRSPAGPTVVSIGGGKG
In words: Dopamine beta hydroxylase activity in human plasma. The format is biochemical. The conditions noted are these: for Plasma (1 μM), activity in % of control: inhibitor 1 μM. The procedure, abridged:
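Octopamine production from tyramine over 45 min at 37° C, measured photometrically at 330 nm after SCX extraction and periodate oxidation against an octopamine standard curve, indicates plasma DβH activity. Compounds tested at final 10, 100 and 1000 nM in human plasma, pH 5.0 cofactor buffer, 10 min preincubation; results as % of control.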

Marks after values point to notes of the source that are not given here.

As to `CN(C(=O)Cc1c2n(c(=S)n1C)C[C@@]1(c3cc(Br)ccc3F)C[C@@H]21)[C@@H]1CCOC1` [Example 466, 2-((5aS,6aR)-5a-(5-bromo-2-fluorophenyl)-2-methyl-3-thioxo-2,3,5,5a,6,6a-hexahydrocyclopropa[3,4]pyrrolo[1,2-c]imidazol-1-yl)-N-methyl-N—((R)-tetrahydrofuran-3-yl)acetamide], the “Plasma (0.01 μM), activity in % of control” value (inhibitor 0.01 μM) is reported as 49.6 % of control. Besides, the “Plasma (0.1 μM), activity in % of control” value (inhibitor 0.1 μM) is listed as 6.5 % of control.
For the compound `Cn1c(CC(=O)Nc2nncs2)c2n(c1=S)C[C@H](c1c(F)ccc(Cl)c1F)C2` [Example 285, (S)-2-(6-(3-chloro-2,6-difluorophenyl)-2-methyl-3-thioxo-2,5,6,7-tetrahydro-3H-pyrrolo[1,2-c]imidazol-1-yl)-N-(1,3,4-thiadiazol-2-yl)acetamide], the “Plasma (0.01 μM), activity in % of control” value (inhibitor 0.01 μM) is given as 55.8 % of control. For the same compound, the “Plasma (0.1 μM), activity in % of control” value (inhibitor 0.1 μM) is recorded as 22.2 % of control.
On to `Cn1c(CC(=O)N[C@H]2CCOC2)c2n(c1=S)C[C@@]1(c3cc(Br)ccc3F)C[C@@H]21` [Example 308, 2-((5aS,6aR)-5a-(5-bromo-2-fluorophenyl)-2-methyl-3-thioxo-2,3,5,5a,6,6a-hexahydrocyclopropa[3,4]pyrrolo[1,2-c]imidazol-1-yl)-N—((S)-tetrahydrofuran-3-yl)acetamide], for which the “Plasma (0.01 μM), activity in % of control” value (inhibitor 0.01 μM) is given as 64.2 % of control. For the same compound, the “Plasma (0.1 μM), activity in % of control” value (inhibitor 0.1 μM) is 12.8 % of control.
As to `CN(C(=O)Cc1c2n(c(=S)n1C)C[C@H](c1c(F)ccc(Br)c1F)C2)C1CCOC1` (stereo partly drawn) [Example 252, 2-((S)-6-(3-bromo-2,6-difluorophenyl)-2-methyl-3-thioxo-2,5,6,7-tetrahydro-3H-pyrrolo[1,2-c]imidazol-1-yl)-N-methyl-N-(tetrahydrofuran-3-yl)acetamide], where the note is “inhibitor 0.01 μM”, the “Plasma (0.01 μM), activity in % of control” value is 82.2 % of control. Further, for the setting “inhibitor 0.01 μM, re-tested under the same experimental conditions, asterisked data believed to be correct”, the “Plasma (0.01 μM), activity in % of control, re-test (asterisked)” value is reported as 46.0* % of control. For the same compound, the “Plasma (0.1 μM), activity in % of control” value (inhibitor 0.1 μM) is reported as 54.8 % of control. Also, the “Plasma (0.1 μM), activity in % of control, re-test (asterisked)” value (inhibitor 0.1 μM, re-tested under the same experimental conditions, asterisked data believed to be correct) was 6.7* % of control.
For `Cn1c(CC(=O)N2CCOCC2)c2n(c1=S)C[C@H](c1cc(F)cc(F)c1)C2` [Example 419, (S)-2-(6-(3,5-difluorophenyl)-2-methyl-3-thioxo-2,5,6,7-tetrahydro-3H-pyrrolo[1,2-c]imidazol-1-yl)-1-morpholinoethan-1-one], for the setting “inhibitor 0.01 μM”, the “Plasma (0.01 μM), activity in % of control” value was 92.5 % of control. Besides, where the note is “inhibitor 0.1 μM”, the “Plasma (0.1 μM), activity in % of control” value was 61.0 % of control.
For the compound `O=C(Cc1[nH]c(=S)n2c1C[C@H](c1c(F)ccc(Br)c1F)C2)N[C@H]1CCC[C@@H]1O` [Example 161, 2-((R)-6-(3-bromo-2,6-difluorophenyl)-3-thioxo-2,5,6,7-tetrahydro-3H-pyrrolo[1,2-c]imidazol-1-yl)-N-((1S,2S)-2-hydroxycyclopentyl)acetamide], the “Plasma (0.01 μM), activity in % of control” value (inhibitor 0.01 μM) is reported as 85.0 % of control. The “Plasma (0.1 μM), activity in % of control” value (inhibitor 0.1 μM) is given as 46.0 % of control.
Regarding `O=C(Cc1[nH]c(=S)n2c1[C@@H]1C[C@]1(c1cc(Br)ccc1F)C2)NC1CCC1` [Example 153, 2-((5aS,6aR)-5a-(5-bromo-2-fluorophenyl)-3-thioxo-2,3,5,5a,6,6a-hexahydrocyclopropa[3,4]pyrrolo[1,2-c]imidazol-1-yl)-N-cyclobutylacetamide], the “Plasma (0.01 μM), activity in % of control” value (inhibitor 0.01 μM) was 85.5 % of control. Moreover, the “Plasma (0.1 μM), activity in % of control” value (inhibitor 0.1 μM) is listed as 28.4 % of control.
As to `Cn1c(CC(=O)N2CCC[C@@H]2C(F)(F)F)c2n(c1=S)C[C@@H](c1c(F)ccc(F)c1F)C2` [Example 344, 2-((R)-2-methyl-3-thioxo-6-(2,3,6-trifluorophenyl)-2,5,6,7-tetrahydro-3H-pyrrolo[1,2-c]imidazol-1-yl)-1-((R)-2-(trifluoromethyl)pyrrolidin-1-yl)ethan-1-one], the “Plasma (0.01 μM), activity in % of control” value (inhibitor 0.01 μM) is on record as 88.2 % of control. For the setting “inhibitor 0.1 μM”, the “Plasma (0.1 μM), activity in % of control” value was 73.7 % of control.
Consider `Cn1c(CC(=O)Nc2ccccn2)c2n(c1=S)C[C@H](c1c(F)ccc(Cl)c1F)C2` [Example 258, (S)-2-(6-(3-chloro-2,6-difluorophenyl)-2-methyl-3-thioxo-3,5,6,7-tetrahydro-2H-pyrrolo[1,2-c]imidazol-1-yl)-N-(pyridin-2-yl)acetamide], for which, for the setting “inhibitor 0.01 μM”, the “Plasma (0.01 μM), activity in % of control” value is recorded as 84.2 % of control. In addition, the “Plasma (0.1 μM), activity in % of control” value (inhibitor 0.1 μM) was 21.3 % of control.
On to `CC1CCN(C(=O)CCc2[nH]c(=S)n3c2C[C@H](c2c(F)c(F)cc(F)c2F)C3)CC1` [Example 208, (R)-1-(4-methylpiperidin-1-yl)-3-(6-(2,3,5,6-tetrafluorophenyl)-3-thioxo-2,5,6,7-tetrahydro-3H-pyrrolo[1,2-c]imidazol-1-yl)propan-1-one], for which, for the setting “inhibitor 0.01 μM”, the “Plasma (0.01 μM), activity in % of control” value is 62.0 % of control. For the setting “inhibitor 0.1 μM”, the “Plasma (0.1 μM), activity in % of control” value was 13.3 % of control.
In the case of `CC(C)NC(=O)Cc1c2n(c(=S)n1C)C[C@H](c1c(F)ccc(Cl)c1F)C2` [Example 236, (S)-2-(6-(3-chloro-2,6-difluorophenyl)-2-methyl-3-thioxo-2,5,6,7-tetrahydro-3H-pyrrolo[1,2-c]imidazol-1-yl)-N-isopropylacetamide], the “Plasma (0.01 μM), activity in % of control” value (inhibitor 0.01 μM) is on record as 104.2 % of control. Also, the “Plasma (0.1 μM), activity in % of control” value (inhibitor 0.1 μM) is 51.0 % of control.
Turning to `Cn1c(CC(=O)N[C@H]2CC[C@H](O)CC2)c2n(c1=S)C[C@@]1(c3cc(Cl)ccc3F)C[C@@H]21` [Example 355, 2-((5aS,6aR)-5a-(5-chloro-2-fluorophenyl)-2-methyl-3-thioxo-2,3,5,5a,6,6a-hexahydrocyclopropa[3,4]pyrrolo[1,2-c]imidazol-1-yl)-N-((1r,4R)-4-hydroxycyclohexyl)acetamide], under “inhibitor 0.01 μM”, the “Plasma (0.01 μM), activity in % of control” value was 56.4 % of control. Further, the “Plasma (0.1 μM), activity in % of control” value (inhibitor 0.1 μM) is 14.0 % of control.
For `CS(=O)(=O)C1CCN(C(=O)Cc2[nH]c(=S)n3c2C[C@H](c2c(F)ccc(Br)c2F)C3)C1` (stereo partly drawn) [Example 135, 2-((R)-6-(3-bromo-2,6-difluorophenyl)-3-thioxo-2,5,6,7-tetrahydro-3H-pyrrolo[1,2-c]imidazol-1-yl)-1-(3-(methylsulfonyl)pyrrolidin-1-yl)ethan-1-one], in that order: 88.3 % of control and 58.1 % of control.
For the compound `Cn1c(CC(=O)NCc2ccc3c(c2)OCO3)c2n(c1=S)C[C@H](c1c(F)ccc(Cl)c1F)C2` [Example 291, (S)—N-(benzo[d][1,3]dioxol-5-ylmethyl)-2-(6-(3-chloro-2,6-difluorophenyl)-2-methyl-3-thioxo-2,5,6,7-tetrahydro-3H-pyrrolo[1,2-c]imidazol-1-yl)acetamide], the “Plasma (0.01 μM), activity in % of control” value (inhibitor 0.01 μM) is 30.2 % of control. Also, the “Plasma (0.1 μM), activity in % of control” value (inhibitor 0.1 μM) was 1.7 % of control.
As to `O=C(O)C(Cc1[nH]c(=S)n2c1C[C@H](c1c(F)c(F)cc(F)c1F)C2)C(=O)O` [Example 201, (R)-2-((6-(2,3,5,6-tetrafluorophenyl)-3-thioxo-2,5,6,7-tetrahydro-3H-pyrrolo[1,2-c]imidazol-1-yl)methyl)malonic Acid], the “Plasma (0.01 μM), activity in % of control” value (inhibitor 0.01 μM) was 62.4 % of control. Under “inhibitor 0.1 μM”, the “Plasma (0.1 μM), activity in % of control” value is recorded as 13.3 % of control.
`Cn1c(CCC(=O)N[C@@H]2CCOC2)c2n(c1=S)C[C@@H](c1c(F)ccc(F)c1F)C2` [Example 265, 3-((R)-2-methyl-3-thioxo-6-(2,3,6-trifluorophenyl)-2,5,6,7-tetrahydro-3H-pyrrolo[1,2-c]imidazol-1-yl)-N—((R)-tetrahydrofuran-3-yl)propanamide]: the “Plasma (0.01 μM), activity in % of control” value (inhibitor 0.01 μM) is 94.9 % of control. Further, the “Plasma (0.1 μM), activity in % of control” value (inhibitor 0.1 μM) is 70.6 % of control.
For the compound `OCCc1[nH]c(=S)n2c1C[C@H](c1c(F)c(F)cc(F)c1F)C2` [Example 172, (R)-1-(2-hydroxyethyl)-6-(2,3,5,6-tetrafluorophenyl)-2,5,6,7-tetrahydro-3H-pyrrolo[1,2-c]imidazole-3-thione], the “Plasma (1 μM), activity in % of control” value is listed as 8.1 % of control. Also, the “Plasma (0.1 μM), activity in % of control” value (inhibitor 0.1 μM) was 46.3 % of control.
As for `Cn1c(CC(=O)NC2COC2)c2n(c1=S)C[C@@]1(c3c(F)ccc(Cl)c3F)C[C@@H]21` [Example 400, 2-((5aS,6aR)-5a-(3-chloro-2,6-difluorophenyl)-2-methyl-3-thioxo-2,3,5,5a,6,6a-hexahydrocyclopropa[3,4]pyrrolo[1,2-c]imidazol-1-yl)-N-(oxetan-3-yl)acetamide], the “Plasma (0.01 μM), activity in % of control” value (inhibitor 0.01 μM) is 31.9 % of control. In addition, the “Plasma (0.1 μM), activity in % of control” value (inhibitor 0.1 μM) is listed as 7.3 % of control.
For `O=C(O)Cc1[nH]c(=S)n2c1C[C@H](c1cc(Cl)ccc1F)C2` [Example 17, (R)-2-(6-(5-chloro-2-fluorophenyl)-3-thioxo-2,5,6,7-tetrahydro-3H-pyrrolo[1,2-c]imidazol-1-yl)acetic Acid], the “Plasma (1 μM), activity in % of control” value is 32.2 % of control. Under “inhibitor 0.1 μM”, the “Plasma (0.1 μM), activity in % of control” value is listed as 79.0 % of control.

For the origin of these results see US11434242B2, “Dopamine-b-hydroxylase inhibitors” (BIAL-PORTELA & Cª, S.A., priority 2017, dated 2022).
